These results are taken from paper PMC3388044, “Probing of Exosites Leads to Novel Inhibitor Scaffolds of HCV NS3/4A Proteinase” (PLoS ONE, 2012).

Test [1] addresses WNV NS2B-NS3 proteinase. Briefly: WNV NS2B-NS3 proteinase activity assay (cross-reactivity). In kind it is biochemical, West Nile virus (strain NY99). Conditions: pyroglutamic acid-Arg-Thr-Lys-Arg-7-amino-4-methylcoumarin substrate. An excerpt:
(§1) Reagents were purchased from Sigma unless indicated otherwise. The FRET substrate Ac-DE-D(Edans)-EE-Abu-ψ-[COO]-AS-K(Dabsyl)-NH2, purified recombinant wild-type NS3/4A from HCV genotype 1b, strain HC-J4, and the mutants with the V36M, R155K, A156T, D168A and V170A resistance mutations were from AnaSpec (Fremont, CA). The NS3/4A construct represented the individual NS3 proteinase domain N-terminally fused with an NS4A co-factor and tagged with a 6xHis tag. NS3/4A was in active form and the pre-activation by pep-4A or pep4AK was not necessary. Pyroglutamic acid-Arg-Thr-Lys-Arg-7-amino-4-methylcoumarin was from Peptides International (Louisville, KY). West Nile virus NS2B-NS3 proteinase (strain NY99) was expressed, purified and refolded to restore its functional activity as described earlier. The pET15b-Den2-CF40-Gly-NS3pro 185 plasmid encoding the Dengue virus type 2 NS2B-NS3 protease was a kind gift of Dr. Subhash Vasudevan (Program in Emerging Infectious Diseases, DUKE-NUS Graduate Medical School, Singapore). DV NS2B-NS3 proteinase was expressed purified and refolded to restore its functional activity as described previously, [70]. The expression of the soluble C-terminally truncated human furin construct in Sf9 insect cells (an ovarian cell line from fall armyworm Spodoptera frugiperda; Invitrogen, Carlsbad, CA) infected with the recombinant baculovirus and purification of soluble furin from the medium were described earlier. Original human hepatocarcinoma Huh7 cells were obtained from ATCC (Manassas, VA).
(§2) The activity of furin and both WNV and DV2 NS2B-NS3 proteinases (10 nM each) was measured in triplicate in 0.2 ml 20 mM Tris-HCl buffer, pH 8.0, containing 20% glycerol and 0.005% Brij 35 (for furin – 100 mM HEPES, pH 7.5, containing 1 mM CaCl2, 1 mM β-mercaptoethanol and 0.005% Brij 35) and pyroglutamic acid-Arg-Thr-Lys-Arg-7-amino-4-methylcoumarin (10 µM) as a substrate (λex = 360 nm; λem = 465 nm) as described earlier.
(§3) To measure the inhibitory potency of the compounds, their increasing concentrations were pre-incubated with the individual proteinases in the corresponding buffer for 30 min at ambient temperature. At least, 7–9 different concentrations were used for each inhibitor. The residual activity of the enzymes was then measured as above. The IC50 values of the inhibitory compounds were calculated by determining the concentrations of the compounds needed to inhibit 50% of the enzyme activity against the peptide substrate. GraphPad Prism was used as fitting software.

Test [2] concerns the target T1, furin (Homo sapiens, UniProt P09958).
T1 construct: soluble C-terminally truncated human furin construct in Sf9 insect cells; made in house; host or cells: Sf9 insect cells (baculovirus)
Briefly: Furin activity assay (cross-reactivity). In kind it is biochemical. Conditions: pyroglutamic acid-Arg-Thr-Lys-Arg-7-amino-4-methylcoumarin substrate.
Text: as §1, §2, §3

Test [3] addresses T2, NS3/4A A156T (Hepatitis C virus genotype 1b, UniProt O92972, A1182T).
T2 construct: The NS3/4A construct represented the individual NS3 proteinase domain N-terminally fused with an NS4A co-factor; 6xHis; purchased AnaSpec (Fremont, CA)
It is filed as biochemical, HCV genotype 1b, strain HC-J4. Conditions: for effect of A156T resistance mutation on efficacy: in contrast with boceprevir and telaprevir; for IC50: recombinant A156T mutant, FRET peptide substrate.
Text: as §1, with “NS3/4A was in active form and the pre-activation by pep-4A or pep4AK was not necessary.” left out
(§4) The NS3/4A activity assay was performed at 37°C in triplicate in wells of a 96-well plate in 0.2 ml 50 mM HEPES, pH 7.5, containing 100 mM NaCl, 10 mM DTT, 20% glycerol, the Ac-DE-D(Edans)-EE-Abu-ψ-[COO]-AS-K(Dabsyl)-NH2 substrate (10 µM) and the NS3/4A enzyme (10 nM). Reaction velocity was monitored continuously at λex = 355 nm and λem = 500 nm for 10 min using a Spectramax Gemini EM fluorescence spectrophotometer (Molecular Devices, Sunnyvale, CA) and the initial rate of reaction v was recorded for each reaction. […] Compound stock solutions (10 mM) were made in 100% DMSO. Stocks were then diluted using the assay buffer. As a result, the final DMSO concentration was always below 1% in the assay reactions.
as §3

Test [4] deals with NS3/4A A156T. It is filed as biochemical, HCV genotype 1b, strain HC-J4. As to conditions: fold change in IC50 for the mutant compared to WT.
Text: as §1, with “NS3/4A was in active form and the pre-activation by pep-4A or pep4AK was not necessary.” left out
as §4, §3

Test [5] deals with NS3/4A D168A. In kind it is biochemical, HCV genotype 1b, strain HC-J4. As to conditions: fold change in IC50 for the mutant compared to WT.
Text: as §1, with “NS3/4A was in active form and the pre-activation by pep-4A or pep4AK was not necessary.” left out
as §4, §3

For test [6], the target named is T3, NS3/4A R155K (Hepatitis C virus genotype 1b, UniProt O92972, R1181K).
T3 construct: The NS3/4A construct represented the individual NS3 proteinase domain N-terminally fused with an NS4A co-factor; 6xHis; purchased AnaSpec (Fremont, CA)
It is filed as biochemical, HCV genotype 1b, strain HC-J4. As to conditions: recombinant R155K mutant, FRET peptide substrate.
Text: as §1, with “NS3/4A was in active form and the pre-activation by pep-4A or pep4AK was not necessary.” left out
as §4, §3

Test [7] relates to NS3/4A R155K. In kind it is biochemical, HCV genotype 1b, strain HC-J4. Conditions: fold change in IC50 for the mutant compared to WT.
Text: as §1, with “NS3/4A was in active form and the pre-activation by pep-4A or pep4AK was not necessary.” left out
as §4, §3

The target of test [8] is T4, NS3/4A V36M (Hepatitis C virus genotype 1b, UniProt O92972, V1062M).
T4 construct: The NS3/4A construct represented the individual NS3 proteinase domain N-terminally fused with an NS4A co-factor; 6xHis; purchased AnaSpec (Fremont, CA)
In kind it is biochemical, HCV genotype 1b, strain HC-J4. As to conditions: recombinant V36M mutant, FRET peptide substrate.
Text: as §1, with “NS3/4A was in active form and the pre-activation by pep-4A or pep4AK was not necessary.” left out
as §4, §3

The test system of test [9] is NS3/4A V36M. In kind it is biochemical, HCV genotype 1b, strain HC-J4. Conditions: fold change in IC50 for the mutant compared to WT.
Text: as §1, with “NS3/4A was in active form and the pre-activation by pep-4A or pep4AK was not necessary.” left out
as §4, §3

Test [10] concerns NS3/4A V170A. Briefly: NS3/4A activity assay, V170A mutant. It is filed as biochemical, HCV genotype 1b, strain HC-J4. Conditions: for NS3/4A V170A FC: fold change in IC50 for the mutant compared to WT; for IC50: recombinant V170A mutant, FRET peptide substrate.
Text: as §1, with “NS3/4A was in active form and the pre-activation by pep-4A or pep4AK was not necessary.” left out
as §4, §3

As usually defined, the IC50 is the concentration needed to halve the response being measured. In the case of `S=c1[nH]nc(Nc2nc(SCc3ccccc3)nc3n[nH]c(Cc4nn[nH]n4)c23)s1` [Compound 6], the IC50 in test [1] turned out to be 12.7 µM; in test [2], 66.8 µM; in [3] it was 3.08 µM; in [6], 2.29 µM; in test [8] it was 0.99 µM; in test [10], 0.93 µM. Also, the “effect of A156T resistance mutation on efficacy” value in [3] is given as “not affected”. Further, the “NS3/4A A156T FC” value in test [4] was found to be 3.24. The “NS3/4A D168A FC” value in test [5] was determined as 1.3. In addition, the “NS3/4A R155K FC” value in test [7] is on record as 2.4. The “NS3/4A V36M FC” value in test [9] was 1.04. The “NS3/4A V170A FC” value in test [10] came out at 0.98.

With `Clc1ccc(Nc2nc(SCc3ccccc3)nc3n[nH]c(Cc4nc5ccccc5s4)c23)cc1` [Compound 5], the half-maximal inhibitory concentration (IC50) was 23.7 µM in test [1]; greater than 100 µM in test [2]; 18.6 µM in test [3]; 9.64 µM in [6]; 1.07 µM in test [8]; 6.29 µM in [10]. Further, the “NS3/4A A156T FC” value in test [4] is 48.95. Moreover, the “NS3/4A D168A FC” value in test [5] was 33.4. Also, the “NS3/4A R155K FC” value in test [7] came out at 25.4. Also, the “NS3/4A V36M FC” value in [9] was 2.8. For the same molecule, the “NS3/4A V170A FC” value in test [10] came out at 16.6.

For the molecule `Cc1n[nH]c(=S)n1Nc1nc(SCc2ccccc2)nc2n[nH]c(Cc3nn[nH]n3)c12` [Compound 3], the half-maximal inhibitory concentration (IC50) was 18.2 µM in test [1]; greater than 100 µM in test [2]; 16.2 µM in test [3]; 5.53 µM in [6]; 1.67 µM in test [8]; 1.97 µM in test [10]. The “NS3/4A A156T FC” value in test [4] is 45.14. The “NS3/4A D168A FC” value in test [5] was determined as 23.3. The “NS3/4A R155K FC” value in test [7] is recorded as 15.4. The “NS3/4A V36M FC” value in test [9] is recorded as 4.6. Also, in [10], the “NS3/4A V170A FC” value was found to be 5.5.

For `Oc1ccccc1-c1nnc2sc3c(Cl)c4nn5c(-c6ccccc6O)nnc5sc4c(Cl)c3nn12` [Compound 4], the half-maximal inhibitory concentration (IC50) was found to be 3.7 µM in [1]; 12.8 µM in test [2]; 6.54 µM in [3]; 3.73 µM in test [6]; 0.34 µM in test [8]; 0.8 µM in test [10]. Moreover, in test [4], the “NS3/4A A156T FC” value stood at 18.17. The “NS3/4A D168A FC” value in test [5] turned out to be 9.3. Moreover, the “NS3/4A R155K FC” value in [7] was 10.4. Also, the “NS3/4A V36M FC” value in test [9] amounted to 0.9. In addition, the “NS3/4A V170A FC” value in test [10] came out at 2.2.

Consider `S=c1[nH]n2c(COc3cc(Cl)c(OCc4nnc5sc(=S)[nH]n45)cc3Cl)nnc2s1` [Compound 7], for which the half-inhibitory concentration (IC50) in [1] is 39.1 µM; in test [2], greater than 100 µM; in [3], 1.12 µM; in test [6], 2.03 µM; in [8] it was 1.4 µM; in test [10], 1.52 µM. In addition, the “effect of A156T resistance mutation on efficacy” value in test [3] was “not affected”. Also, the “NS3/4A A156T FC” value in test [4] stood at 0.9. For the same molecule, in [5], the “NS3/4A D168A FC” value was determined as 1. For the same molecule, the “NS3/4A R155K FC” value in [7] is listed as 1.6. Besides, in [9], the “NS3/4A V36M FC” value worked out at 1.1. Also, the “NS3/4A V170A FC” value in test [10] is given as 1.2.

On to `COc1cc(C2C(C(=O)Nc3ccc(Cl)c(Cl)c3)=C(C)NC(C)=C2C(=O)Nc2ccc(Cl)c(Cl)c2)ccc1O` [Compound 8], for which the concentration for half-maximal inhibition (IC50) in [1] came to 21.8 µM; in test [2], 27 µM; in [3], 17.7 µM; in [6] it was 10.9 µM; in [8], 1.84 µM; in test [10], 2.92 µM. Also, the “NS3/4A A156T FC” value in test [4] came to 9.2. Further, the “NS3/4A D168A FC” value in [5] is on record as 1.6. Also, the “NS3/4A R155K FC” value in test [7] amounted to 5.7. Also, the “NS3/4A V36M FC” value in test [9] is recorded as 0.96. In [10], the “NS3/4A V170A FC” value is 1.5.

As for `Clc1ccc(OCc2nn3c(CCc4nnc5sc(COc6ccc(Cl)cc6)nn45)nnc3s2)cc1` [Compound 2], the IC50 in [1] was greater than 100 µM; in test [2], greater than 100 µM; in test [3] it was 17.3 µM; in [6] it was 5.84 µM; in [8], 1.53 µM; in [10] it was 1.8 µM. Besides, in test [4], the “NS3/4A A156T FC” value was found to be 57.57. Moreover, the “NS3/4A D168A FC” value in test [5] amounted to 14.8. Further, the “NS3/4A R155K FC” value in test [7] is listed as 19.5. Besides, the “NS3/4A V36M FC” value in test [9] was 5.1. In addition, the “NS3/4A V170A FC” value in test [10] was found to be 6.

For `O=C(Nc1ccccc1)c1cc(S(=O)(=O)Nc2nc3ncccc3[nH]2)c(SSc2cc(Cl)c(C(=O)Nc3ccccc3)cc2S(=O)(=O)Nc2nc3ncccc3[nH]2)cc1Cl` [Compound 1], the IC50 was 21.9 µM in test [1]; greater than 100 µM in test [2]; 0.72 µM in test [3]; 1.75 µM in test [6]; 0.26 µM in test [8]; 0.4 µM in [10]. For the same molecule, the “NS3/4A A156T FC” value in test [4] was determined as 3.93. Also, in [5], the “NS3/4A D168A FC” value came to 1.4. The “NS3/4A R155K FC” value in [7] stood at 9.6. In addition, the “NS3/4A V36M FC” value in test [9] is listed as 1.4. For the same molecule, the “NS3/4A V170A FC” value in test [10] worked out at 2.2.
